Measured values reported in ChEMBL document CHEMBL6114954, “Design, synthesis and cytotoxic activity of novel lipophilic cationic derivatives of diosgenin and sarsasapogenin” (Bioorg Med Chem Lett, 2025).

Tests used:
Format in all cases: functional, cell-based
MDA-MB-231 = test: Cytotoxicity against human MDA-MB-231 cells
A549 = test: Cytotoxicity against human A549 cells
HepG2 = test: Cytotoxicity against human HepG2 cells

Q: With `CC[N+]1(CCCC(=O)OC[C@H](C)CC[C@H]2O[C@H]3C[C@H]4[C@@H]5CC=C6C[C@@H](OC(C)=O)CC[C@]6(C)[C@H]5CC[C@]4(C)[C@H]3[C@@H]2C)CCc2ccccc2C1` (stereo not given in full) as the compound, how does the IC50 (MDA-MB-231) read?
A: The IC50 was 34.8 µM.

Q: What about the IC50 (A549) of the same compound?
A: Its IC50 is 14.4 µM.

Q: And the IC50 (HepG2)?
A: Its IC50 is 33.5 µM.

Q: With `CC[N+]1(CCCC(=O)O[C@H]2CC[C@@]3(C)[C@H](CC[C@@H]4[C@@H]3CC[C@]3(C)[C@@H]5[C@H](C[C@@H]43)O[C@]3(CCC(C)CO3)[C@H]5C)C2)CCCCC1` (stereo not given in full) as the compound, how does the IC50 (MDA-MB-231) read?
A: The IC50 was 37.8 µM.

Q: What about the IC50 (A549) of the same compound?
A: The IC50 was 14.6 µM.

Q: And the IC50 (HepG2)?
A: Its IC50 is 19.9 µM.

Q: Which results are given for `CC[N+]1(CCCC(=O)OC[C@H](C)CC[C@H]2O[C@H]3C[C@H]4[C@@H]5CC=C6C[C@@H](OC(C)=O)CC[C@]6(C)[C@H]5CC[C@]4(C)[C@H]3[C@@H]2C)CCCCC1`?
A: IC50 (MDA-MB-231): > 50 µM; IC50 (A549): 18 µM; IC50 (HepG2): > 50 µM

Q: `CC(=O)O[C@H]1CC[C@@]2(C)C(=CC[C@H]3[C@@H]4C[C@@H]5O[C@H](CC[C@@H](C)COC(=O)CC[P+](c6ccccc6)(c6ccccc6)c6ccccc6)[C@@H](C)[C@@H]5[C@@]4(C)CC[C@@H]32)C1` was tested. Which IC50 (MDA-MB-231) did it give?
A: Its IC50 is 38.5 µM.

Q: What about the IC50 (A549) of the same compound?
A: Its IC50 is 5.99 µM.

Q: What about the IC50 (HepG2) of the same compound?
A: The IC50 was 26.2 µM.

Q: Which IC50 (MDA-MB-231) does the source give for `CC1CC[C@@]2(OC1)O[C@H]1C[C@H]3[C@@H]4CC=C5C[C@@H](OC(=O)CC[P+](c6ccccc6)(c6ccccc6)c6ccccc6)CC[C@]5(C)[C@H]4CC[C@]3(C)[C@H]1[C@@H]2C` (stereo not given in full) here?
A: Its IC50 is 7.92 µM.

Q: What about the IC50 (A549) of the same compound?
A: Its IC50 is 1.19 µM.

Q: What about the IC50 (HepG2) of the same compound?
A: Its IC50 is 8.28 µM.

Q: What does the source list for `CC1CC[C@@]2(OC1)O[C@H]1C[C@H]3[C@@H]4CC=C5C[C@@H](OC(=O)CCCCC[P+](c6ccccc6)(c6ccccc6)c6ccccc6)CC[C@]5(C)[C@H]4CC[C@]3(C)[C@H]1[C@@H]2C` (stereo not given in full)?
A: IC50 (MDA-MB-231): 5.49 µM; IC50 (A549): 1.24 µM; IC50 (HepG2): 4.19 µM

Q: `CC[N+]1(CCCC(=O)O[C@H]2CC[C@@]3(C)C(=CC[C@H]4[C@@H]5C[C@@H]6O[C@]7(CCC(C)CO7)[C@@H](C)[C@@H]6[C@@]5(C)CC[C@@H]43)C2)CCCCC1` (stereo not given in full) was tested. Which IC50 (MDA-MB-231) did it give?
A: Its IC50 is 40.5 µM.

Q: And the IC50 (A549)?
A: The IC50 was 15.4 µM.

Q: What about the IC50 (HepG2) of the same compound?
A: The IC50 was 19.2 µM.

Q: For `CC1CC[C@@]2(OC1)O[C@H]1C[C@H]3[C@@H]4CC[C@@H]5C[C@@H](OC(=O)C[P+](c6ccccc6)(c6ccccc6)c6ccccc6)CC[C@]5(C)[C@H]4CC[C@]3(C)[C@H]1[C@@H]2C` (stereo not given in full), which IC50 (MDA-MB-231) is on record?
A: The IC50 was 42.9 µM.

Q: What about the IC50 (A549) of the same compound?
A: Its IC50 is 5.23 µM.

Q: What about the IC50 (HepG2) of the same compound?
A: Its IC50 is 22.6 µM.

Q: Which results are given for `CC1CC[C@@]2(OC1)O[C@H]1C[C@H]3[C@@H]4CC=C5C[C@@H](OC(=O)C[P+](c6ccccc6)(c6ccccc6)c6ccccc6)CC[C@]5(C)[C@H]4CC[C@]3(C)[C@H]1[C@@H]2C` (stereo not given in full)?
A: IC50 (MDA-MB-231): 33.3 µM; IC50 (A549): 15.6 µM; IC50 (HepG2): 22.2 µM

Q: `CC[N+]1(CCCC(=O)O[C@H]2CC[C@@]3(C)C(=CC[C@H]4[C@@H]5C[C@@H]6O[C@]7(CCC(C)CO7)[C@@H](C)[C@@H]6[C@@]5(C)CC[C@@H]43)C2)CCCC1` (stereo not given in full) was tested. Which IC50 (MDA-MB-231) did it give?
A: Its IC50 is 26.4 µM.

Q: And the IC50 (A549)?
A: The IC50 was 16.2 µM.

Q: And the IC50 (HepG2)?
A: Its IC50 is 16.8 µM.

Q: With `CC[N+]1(CCCC(=O)OC[C@H](C)CC[C@H]2O[C@H]3C[C@H]4[C@@H]5CC=C6C[C@@H](OC(C)=O)CC[C@]6(C)[C@H]5CC[C@]4(C)[C@H]3[C@@H]2C)CCNCC1` as the compound, how does the IC50 (MDA-MB-231) read?
A: Its IC50 is 36.4 µM.

Q: And the IC50 (A549)?
A: The IC50 was 13.7 µM.

Q: What about the IC50 (HepG2) of the same compound?
A: The IC50 was 34.6 µM.

Q: `CC[N+]1(CCCC(=O)O[C@H]2CC[C@@]3(C)C(=CC[C@H]4[C@@H]5C[C@@H]6O[C@]7(CCC(C)CO7)[C@@H](C)[C@@H]6[C@@]5(C)CC[C@@H]43)C2)CCNCC1` (stereo not given in full) was tested. Which IC50 (MDA-MB-231) did it give?
A: The IC50 was 49.2 µM.

Q: And the IC50 (A549)?
A: Its IC50 is 18.6 µM.

Q: And the IC50 (HepG2)?
A: Its IC50 is 33.7 µM.

Q: What does the source list for `CC[N+]1(CCCC(=O)OC[C@H](C)CC[C@H]2O[C@H]3C[C@H]4[C@@H]5CC=C6C[C@@H](OC(C)=O)CC[C@]6(C)[C@H]5CC[C@]4(C)[C@H]3[C@@H]2C)CCCC1`?
A: IC50 (MDA-MB-231): > 50 µM; IC50 (A549): 20.7 µM; IC50 (HepG2): > 50 µM

Q: With `CC(=O)O[C@H]1CC[C@@]2(C)C(=CC[C@H]3[C@@H]4C[C@@H]5O[C@H](CC[C@@H](C)COC(=O)CCC[P+](c6ccccc6)(c6ccccc6)c6ccccc6)[C@@H](C)[C@@H]5[C@@]4(C)CC[C@@H]32)C1` as the compound, how does the IC50 (MDA-MB-231) read?
A: Its IC50 is 31.5 µM.

Q: And the IC50 (A549)?
A: The IC50 was 6.06 µM.

Q: And the IC50 (HepG2)?
A: Its IC50 is 23.7 µM.

Q: With `CC1CC[C@@]2(OC1)O[C@H]1C[C@H]3[C@@H]4CC[C@@H]5C[C@@H](OC(=O)CC[P+](c6ccccc6)(c6ccccc6)c6ccccc6)CC[C@]5(C)[C@H]4CC[C@]3(C)[C@H]1[C@@H]2C` (stereo not given in full) as the compound, how does the IC50 (MDA-MB-231) read?
A: The IC50 was 4.26 µM.

Q: And the IC50 (A549)?
A: The IC50 was 1.09 µM.

Q: What about the IC50 (HepG2) of the same compound?
A: The IC50 was 3.34 µM.
